Experimental data reported in PubChem BioAssay AID330 (DTP/NCI, 2004).
Several values for one entry are separate records, joined by “and”; a condition that tells them apart may be missing. Identical values can stand only once. Inconclusive results and toxic doses are left out. Rule for the calls: active = survival T/C of 150% or more; inactive = T/C below 125% in these data.

System: P388 leukemia ip, CD2F1 mice, survival T/C
Test: NCI In Vivo Anticancer Drug Screen. Data for tumor model P388 Leukemia (intraperitoneal) in CD2F1 (CDF1) mice
Conditions: endpoint: median survival time, higher = longer survival
In short: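 Mice carrying the transplanted tumor received test compound or vehicle. Survival was recorded in each group, and the value is the treated-group measurement divided by that of the vehicle-treated control group.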

[1] = dose: 6.25 mg/kg/injection, schedule: Q01DX009 (ip), vehicle: saline with Tween-80
[2] = dose: 12.5 mg/kg/injection, schedule: Q01DX009 (ip), vehicle: saline with Tween-80
[3] = dose: 25.0 mg/kg/injection, schedule: Q01DX009 (ip), vehicle: saline with Tween-80
[4] = dose: 200.0 mg/kg/injection, schedule: Q01DX009 (ip), vehicle: saline with Tween-80
[5] = dose: 50.0 mg/kg/injection, schedule: Q01DX009 (ip), vehicle: saline with Tween-80
[6] = dose: 100.0 mg/kg/injection, schedule: Q01DX009 (ip), vehicle: saline with Tween-80
[7] = dose: 60.0 mg/kg/injection, schedule: Q01DX005 (ip), vehicle: saline with Tween-80
[8] = dose: 120.0 mg/kg/injection, schedule: Q01DX005 (ip), vehicle: saline with Tween-80
[9] = dose: 240.0 mg/kg/injection, schedule: Q01DX005 (ip), vehicle: saline with Tween-80
[10] = dose: 50.0 mg/kg/injection, schedule: Q01DX005 (ip), vehicle: Klucel (hydroxypropylcellulose) (HPC)
[11] = dose: 100.0 mg/kg/injection, schedule: Q01DX005 (ip), vehicle: Klucel (hydroxypropylcellulose) (HPC)
[12] = dose: 200.0 mg/kg/injection, schedule: Q01DX005 (ip), vehicle: Klucel (hydroxypropylcellulose) (HPC)

Measured: T/C

N#C/C(=C1/NC(=O)c2ccccc21)c1nc2ccccc2n1CCO
inactive: [1] 91 % of control | [2] 92 % of control | [3] 89 % of control | [4] 89 % of control

C#CCOCCCC(=C)C
inactive: dose: 3.12 mg/kg/injection, schedule: Q01DX005 (ip), vehicle: saline 103 % of control | dose: 6.25 mg/kg/injection, schedule: Q01DX005 (ip), vehicle: saline 99 % of control | dose: 12.5 mg/kg/injection, schedule: Q01DX005 (ip), vehicle: saline 100 % of control | dose: 25.0 mg/kg/injection, schedule: Q01DX005 (ip), vehicle: saline 100 % of control

COC1=CC(=O)C(C(C)=O)=C(C2(C)C(=O)CCCC2=O)C1=O
inactive: dose: 50.0 mg/kg/injection, schedule: Q01DX005 (ip), vehicle: saline with Tween-80 106 % of control | dose: 100.0 mg/kg/injection, schedule: Q01DX005 (ip), vehicle: saline with Tween-80 89 % of control | dose: 200.0 mg/kg/injection, schedule: Q01DX005 (ip), vehicle: saline with Tween-80 104 % of control

COc1ccc(C2CC(=O)C(C(=O)OC3CCCCC3)C2c2ccc(OC)cc2)cc1 (stereo not drawn)
inactive: dose: 12.5 mg/kg/injection, schedule: Q01DX001 (ip), vehicle: Klucel (hydroxypropylcellulose) (HPC) 92 % of control | dose: 25.0 mg/kg/injection, schedule: Q01DX001 (ip), vehicle: Klucel (hydroxypropylcellulose) (HPC) 93 % of control | dose: 50.0 mg/kg/injection, schedule: Q01DX001 (ip), vehicle: Klucel (hydroxypropylcellulose) (HPC) 86 % of control

O=[n+]1c2c(n([O-])c3ccccc31)CCC2
inactive: [5] 98 % of control | [6] 100 % of control | [4] 108 % of control

N#CSCc1c(Cl)cccc1Cl
inactive: dose: 25.0 mg/kg/injection, schedule: Q01DX009 (ip), vehicle: other 104 % of control | dose: 50.0 mg/kg/injection, schedule: Q01DX009 (ip), vehicle: other 104 % of control | dose: 100.0 mg/kg/injection, schedule: Q01DX009 (ip), vehicle: other 103 % of control | dose: 200.0 mg/kg/injection, schedule: Q01DX009 (ip), vehicle: other 113 % of control

O=c1[nH]nc(-c2ccc([N+](=O)[O-])o2)o1
inactive: [1] 101 % of control | [2] 106 % of control | [3] 97 % of control | [5] 99 % of control

Cn1c(=S)[nH]n(CCOc2ccccc2)c1=S
inactive: [7] 118 % of control | [8] 98 % of control and 99 % of control and 108 % of control | [9] 109 % of control and 123 % of control and 97 % of control | dose: 480.0 mg/kg/injection, schedule: Q01DX005 (ip), vehicle: saline with Tween-80 105 % of control and 96 % of control

CCOC(=O)/C(C#N)=N/Nc1ccc2cn[nH]c2c1
inactive: [10] 99 % of control | [11] 94 % of control | [12] 97 % of control

C[C@]12CCC(=O)C=C1CC[C@H]1[C@@H]3CC[C@](O)(C(=O)CF)[C@@]3(C)C[C@H](O)[C@@]12F
inactive: dose: 3.12 mg/kg/injection, schedule: Q01DX009 (ip), vehicle: saline 105 % of control | dose: 6.25 mg/kg/injection, schedule: Q01DX009 (ip), vehicle: saline 102 % of control | dose: 12.5 mg/kg/injection, schedule: Q01DX009 (ip), vehicle: saline 118 % of control | dose: 25.0 mg/kg/injection, schedule: Q01DX009 (ip), vehicle: saline 90 % of control

Cc1ccc(S(=O)(=O)N(CCCc2c(-c3ccccc3)nc(N)[nH]c2=O)c2ccccc2)cc1
inactive: dose: 3.75 mg/kg/injection, schedule: Q01DX005 (ip), vehicle: saline with Tween-80 102 % of control | dose: 7.5 mg/kg/injection, schedule: Q01DX005 (ip), vehicle: saline with Tween-80 94 % of control | dose: 15.0 mg/kg/injection, schedule: Q01DX005 (ip), vehicle: saline with Tween-80 107 % of control and 87 % of control | [7] 98 % of control and 90 % of control

CC(C)C(NSC(=O)C1CCCN1Sc1ccc([N+](=O)[O-])cc1[N+](=O)[O-])C(=O)OCc1ccccc1 (stereo not drawn)
inactive: dose: 25.0 mg/kg/injection, schedule: Q01DX005 (ip), vehicle: Klucel (hydroxypropylcellulose) (HPC) 92 % of control | [10] 94 % of control | [11] 86 % of control and 93 % of control | [12] 93 % of control

O=C1CSC(c2ccc(O)cc2)N1c1nncs1 (stereo not drawn)
inactive: [7] 107 % of control | [8] 104 % of control | [9] 98 % of control

c1ccc(CSc2nnc3c4ccccc4c4ccccc4c3n2)cc1
inactive: [5] 100 % of control | [6] 102 % of control | [4] 101 % of control

CCCC(=O)Oc1c(OC(=O)CCC)c(OC(=O)CCC)c(OC(=O)CCC)c(OC(=O)CCC)c1OC(=O)CCC
inactive: dose: 100.0 mg/kg/injection, schedule: Q04DX002 (ip), vehicle: saline with Tween-80 95 % of control | dose: 200.0 mg/kg/injection, schedule: Q04DX002 (ip), vehicle: saline with Tween-80 99 % of control | dose: 400.0 mg/kg/injection, schedule: Q04DX002 (ip), vehicle: saline with Tween-80 90 % of control

C/C(=N\NC(=S)N1CCCCCC1)c1ccccn1
inactive: dose: 0.78 mg/kg/injection, schedule: Q01DX009 (ip), vehicle: saline with Tween-80 99 % of control and 96 % of control | dose: 1.56 mg/kg/injection, schedule: Q01DX009 (ip), vehicle: saline with Tween-80 99 % of control and 103 % of control | dose: 3.12 mg/kg/injection, schedule: Q01DX009 (ip), vehicle: saline with Tween-80 90 % of control | dose: 3.13 mg/kg/injection, schedule: Q01DX009 (ip), vehicle: saline with Tween-80 121 % of control and 95 % of control | [1] 100 % of control and 112 % of control and 117 % of control | [2] 103 % of control

CCN(CC)CCOC(=O)c1cc2cc3cc(C(=O)OCCN(CC)CC)c(=O)oc3c(C)c2oc1=O
inactive: dose: 50.0 mg/kg/injection, schedule: Q01DX005 (ip), vehicle: saline 113 % of control | dose: 100.0 mg/kg/injection, schedule: Q01DX005 (ip), vehicle: saline 114 % of control | dose: 200.0 mg/kg/injection, schedule: Q01DX005 (ip), vehicle: saline 107 % of control

CN(/N=C/c1ccc2c(c1)OCO2)C(=O)c1ccccc1N
inactive: [5] 108 % of control | [6] 114 % of control | [4] 116 % of control

Cc1cc(=O)[nH]c2cc3oc4ccccc4c3cc12
inactive: [7] 98 % of control | [8] 102 % of control | [9] 103 % of control
